The values that follow come from patent US20260207640A1, “Polyphenolic Boronates and Use Thereof” (The Medical College of Wisconsin, Inc., priority 2022, published 2026).

In one series the test system is lung cancer (A549) cells. Briefly: IncuCyte cell proliferation, lung cancer cells. Type of series: cell-based, human. To be noted: comparison within pair. As for the experimental part: (§1) FIGS. 2A-2C show effects of HNK and HNK-B on the proliferation of glioblastoma (U87MG), pancreatic cancer (MiaPaCa-2) cells, and lung cancer (A549) cells. The effects of HNK and HNK-B on the proliferation of U87MG (FIG. 2A), MiaPaCa-2 (FIG. 2B), or A549 (FIG. 2C) cells were monitored in the IncuCyte Live-Cell Analysis system. The IncuCyte analyzer provides real-time updates on cell confluence based on segmentation of high definition-phase contrast images. Representative cell images are shown as segmentation masks, illustrated when control cells reached 90% confluence (vertical solid line). The half maximal inhibitory concentration (IC50) values for U87MG (FIG. 2A), MiaPaCa-2 (FIG. 2B), or A549 (FIG. 2C) cells were determined at the point at which control cells reached ~90% confluence (vertical solid line). Relative cell confluence (control is taken as 100%) is plotted against concentration. Dashed lines represent the fitting curves used to determine the IC50 values as indicated. Data shown are the mean±standard deviation (SD).
(§2) The effects of Mito-HNK and Mito-HNK-B on the proliferation of U87MG (FIG. 3A), MiaPaCa-2 (FIG. 3B), or A549 (FIG. 3C) cells were monitored in the IncuCyte Live-Cell Analysis system. The IncuCyte analyzer provides real-time updates on cell confluence based on segmentation of high definition-phase contrast images. Representative cell images are shown as segmentation masks, illustrated when control cells reached 90% confluence (vertical solid line). The IC50 values for U87MG (FIG. 3A), MiaPaCa-2 (FIG. 3B), or A549 (FIG. 3C) cells were determined at the point at which control cells reached ~90% confluence (vertical solid line). Relative cell confluence (control is taken as 100%) is plotted against concentration. Dashed lines represent the fitting curves used to determine the IC50 values as indicated. Data shown are the mean±SD. […]

The subject of series [1] is pancreatic cancer (MiaPaCa-2) cells. Briefly: IncuCyte cell proliferation, pancreatic cancer cells. Type of series: cell-based, human. The conditions noted are these: comparison within pair. As to the method: as §1, §2
In series [2] the test system is glioblastoma (U87MG) cells. Briefly: IncuCyte cell proliferation, glioblastoma cells. Type of series: cell-based, human. The conditions noted are these: for antiproliferative effect, boronate versus non-boronated analog: comparison within pair (HNK/HNK-B, Mito-HNK/Mito-HNK-B, MGN/MGN-B, Mito-MGN/Mito-MGN-B). As for the experimental part:
as §1
The effects of Mito-HNK and Mito-HNK-B on the proliferation of U87MG (FIG. 3A), MiaPaCa-2 (FIG. 3B), or A549 (FIG. 3C) cells were monitored in the IncuCyte Live-Cell Analysis system. The IncuCyte analyzer provides real-time updates on cell confluence based on segmentation of high definition-phase contrast images. Representative cell images are shown as segmentation masks, illustrated when control cells reached 90% confluence (vertical solid line). The IC50 values for U87MG (FIG. 3A), MiaPaCa-2 (FIG. 3B), or A549 (FIG. 3C) cells were determined at the point at which control cells reached ~90% confluence (vertical solid line). Relative cell confluence (control is taken as 100%) is plotted against concentration. Dashed lines represent the fitting curves used to determine the IC50 values as indicated. Data shown are the mean±SD.
FIGS. 4A-4B show effects of Mito-MGN, Mito-MGN-B, MGN, and MGN-B on the proliferation of glioblastoma cancer (U87MG) cells. The effects of Mito-MGN, Mito-MGN-B, MGN, and MGN-B on the proliferation of U87MG cells were monitored in the IncuCyte Live-Cell Analysis system. The IncuCyte analyzer provides real-time updates on cell confluence based on segmentation of high definition-phase contrast images. Representative cell images are shown as segmentation masks, illustrated in black when control cells reached 90% confluence. Full growth curves of Mito-MGN and Mito-MGN-B are shown in panel (FIG. 4A). The IC50 values were determined at the point at which control cells reached ~90% confluence. Relative cell confluence (control is taken as 100%) is plotted against concentration. Dashed lines in FIG. 4B represent the fitting curves used to determine the IC50 values as indicated for Mito-MGN and Mito-MGN-B (left panel) and for MGN and MGN-B (right panel). Data shown are the mean±SD.
(§3) The U87MG (ATCC Cat #HTB-14, human glioblastoma cancer cells), A549 (ATCC Cat #CCL-185, human lung cancer cells), and MiaPaCa-2 (ATCC Cat #CRL-1420, human pancreatic cancer cells) cell lines were purchased from the American Tissue Culture Collection (Manassas, VA, USA). The UACC-62 melanoma cell line was purchased from AddexBio (San Diego, CA; Cat #C0020003). All cell lines were regularly authenticated. All cell lines were grown at 37° C. in 5% carbon dioxide. The U87MG, A549, and UACC-62 cells were maintained in Roswell Park Memorial Institute Medium 1640 medium (Thermo Fisher Scientific, Waltham, MA, USA; Cat #11875) supplemented with 10% fetal bovine serum. MiaPaCa-2 cells were maintained in Dulbecco's Modified Eagle Medium (Thermo Fisher Scientific, Waltham, MA, USA; Cat #11965) and supplemented with 10% fetal bovine serum. All cells were stored in liquid nitrogen and used within 20 passages after thawing.
The IncuCyte Live-Cell Analysis System was used to continuously monitor cell proliferation, as described in earlier publications.

The target in another series is T1, NOX2 (Homo sapiens, UniProt P04839).
T1 sequence (P04839 2-570 limits assumed): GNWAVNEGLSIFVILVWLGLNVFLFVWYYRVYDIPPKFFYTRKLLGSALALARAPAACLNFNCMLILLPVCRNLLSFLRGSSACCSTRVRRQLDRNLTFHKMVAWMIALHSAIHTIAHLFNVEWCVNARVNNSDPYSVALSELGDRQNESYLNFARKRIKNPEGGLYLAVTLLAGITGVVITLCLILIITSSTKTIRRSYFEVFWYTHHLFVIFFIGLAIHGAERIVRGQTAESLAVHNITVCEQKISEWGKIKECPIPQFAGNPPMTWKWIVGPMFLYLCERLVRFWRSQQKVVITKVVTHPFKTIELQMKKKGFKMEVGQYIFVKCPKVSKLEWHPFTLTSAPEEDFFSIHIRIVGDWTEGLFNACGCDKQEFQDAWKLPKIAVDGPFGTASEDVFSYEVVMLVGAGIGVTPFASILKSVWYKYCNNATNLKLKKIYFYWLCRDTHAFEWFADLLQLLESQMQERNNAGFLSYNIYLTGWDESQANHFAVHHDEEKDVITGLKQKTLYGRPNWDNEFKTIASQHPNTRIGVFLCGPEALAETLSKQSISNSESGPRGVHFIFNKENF
Briefly: Oxidant formation from NOX2. To be noted: preliminary results.

For series [3] the following is noted: not told; cited from earlier work.
The subject of another series is lung tumors. The conditions noted are these: mice xenografts; cited from earlier work.
The subject of series [4] is arginase-1 and NOS-2 (or iNOS). To be noted: cited from earlier work.
In the next series the test system is kidney. To be noted: in vivo; cited from earlier work.
Series [5] deals with granulocytic-myeloid-derived suppressor cells (G-MDSCs) and regulatory T cells (Tregs). To be noted: cited from earlier work.
The subject of the next series is melanoma (UACC-62) cells. Briefly: IncuCyte cell proliferation, melanoma cells. To be noted: dose-dependent. Type of series: cell-based. As to the method: FIGS. 5A-5B show effects of MGN and MGN-B on the proliferation of melanoma cancer (UACC-62) cells. The effects of MGN and MGN-B on the proliferation of UACC-62 cells were monitored in the IncuCyte Live-Cell Analysis system. The IncuCyte analyzer provides real-time updates on cell confluence based on segmentation of high definition-phase contrast images. The IC50 values were determined at the point at which control cells reached ~90% confluence. Relative cell confluence (control is taken as 100%) is plotted against concentration. Dashed lines in FIG. 5B represent the fitting curves used to determine the IC50 values as indicated for MGN and MGN-B. Data shown are the mean±SD.
as §3, with “MiaPaCa-2 cells were maintained in Dulbecco's Modified Eagle Medium (Thermo Fisher Scientific, Waltham, MA, USA; Cat #11965) and supplemented with 10% fetal bovine serum. All cells were stored in liquid nitrogen and used within 20 passages after thawing.” left out

The nature of series [6]: Hydrolysis of pinacolate ester in aqueous phosphate buffer, HPLC. The series is classed as physicochemical. The conditions noted are these: upon dilution in aqueous phosphate buffer. As for the experimental part:
Stock solutions of HNK-B, HNK-B^2, and Mito-HNK-B were prepared in dimethyl sulfoxide at a 10 mM concentration and this solution was added directly to the buffer to obtain the desired concentration. […] Thus, the boronic acid species were tested with the oxidants. When studying HNK-B and Mito-HNK-B oxidations by HOCl, stock solutions (10 mM) in MeCN were added to the phosphate buffer (100 mM, pH 7.4) to obtain a final concentration of the probe of 500 μM. Dimethyl sulfoxide solvent was avoided due to known rapid quenching of HOCl by dimethyl sulfoxide.

The nature of series [7]: Oxidation of boronates by H2O2, HPLC. Type of series: physicochemical. As to the method: (§4) All samples were incubated at room temperature in aqueous solution containing phosphate buffer (0.1 M, pH 7.4) and DTPA (10 μM). Absorption traces recorded using UV absorption detection at 260 nm.
(§5) High-performance liquid chromatography (HPLC) analysis was performed using an Agilent 1200 apparatus equipped with ultraviolet-visible spectroscopy absorption and a mass spectrometry detector (single quadrupole).
(§6) In the studies on the reaction profile of ONOO oxidation of Mito-HNK-B and derivatives, 2 μL of sample was injected into the HPLC system equipped with a C18 column (Phenomenex, Kinetex Evo, 100×2.1 mm, 1.7 μm) equilibrated with 5% MeCN containing 0.1% (v/v) formic acid. The compounds were separated by a linear increase in MeCN phase concentration from 5% to 100% over 8 min and until 15 min at 100% MeCN using a flow rate of 0.21 mL/min. The peak areas detected by monitoring the absorption at 260 nm were used for the quantitation.
(§7) The stock solutions of oxidants (HOCl and H2O2) were prepared freshly before each experiment; their concentrations were determined by spectrophotometry by reacting nitrite with H2O2, using the procedure described previously. […] Immediately prior to each experiment, the concentration of ONOO was determined spectrally at 302 nm (ε=1.7× 103 M^−1 cm^−1) after dilution in 0.1 M sodium hydroxide to ~10 mM concentration. […]

Series [8] can be described thus: Oxidation of boronates by ONOO−, HPLC. The series is classed as physicochemical. To be noted: in the presence of ONOO−. As to the method: as §4, §5, §6, §7

Entries after “also recorded” stand apart in the source; their conditions may differ.

Regarding `C=CCc1ccc(O)c(-c2ccc(O)c(CC=C)c2)c1` [HNK, honokiol], the “antiproliferative effect, boronate versus non-boronated analog” value (in the series on lung cancer (A549) cells; in series [1]; in series [2]) was “nearly the same” throughout.

For “mitochondria-targeted honokiol [Mito-HNK]”, the “antiproliferative effect, boronate versus non-boronated analog” value (in the series on lung cancer (A549) cells; in [1]; in series [2]) was “nearly the same” throughout. Besides, on NOX2, the “oxidant formation from NOX2” value was “inhibits oxidant formation”. In [3], the blood-brain-barrier permeability entry was “showed blood-brain-barrier permeability”. For the same compound, the “metastasis of lung tumors to the brain” value in the series with lung tumors was “inhibited metastasis”.

With `NC(=O)c1c(COC(=O)c2ccccc2O)no[n+]1[O-]` [AT38, 3-(aminocarbonyl) furoxan-4-yl) methyl salicylate], in series [4], the chemokine nitration result is “mitigated chemokine nitration”; the “expression of arginase-1 and NOS-2 (or iNOS) in myeloid cells in the TME” value was “inhibited the expression”.

Turning to “mitochondria-targeted magnolol [Mito-MGN]”, the “antiproliferative potency of TPP+ conjugate compared with parent compounds MGN/MGN-B” value in series [2] is “increased their antiproliferative potencies”.

On to “mitochondria-targeted carboxy-proxyl [Mito-CP]”, for which the cisplatin-induced renal toxicity entry in the series with kidney is listed as “inhibited cisplatin-induced renal toxicity”.

`O=C1C(OCCCCCCCCCC[P+](c2ccccc2)(c2ccccc2)c2ccccc2)=C(C2CCC(c3ccc(Cl)cc3)CC2)C(=O)c2ccccc21` (stereo not drawn) [Mito-ATO, Mitochondria-targeted atovaquone]: in series [5] (flow cytometry analysis), the “G-MDSCs and Tregs in the TME” value is “significant decreases”. For the same compound, the “T cell immune responses locally and in distant tumor sites” value in series [5] (intratumoral injection into primary tumors, spontaneous tumor model) was “triggered potent T cell immune responses”.

Take “Mitochondria-targeted magnolol boronate [Mito-MGN-B]”: in [2], the “antiproliferative potency of TPP+ conjugate compared with parent compounds MGN/MGN-B” value is listed as “increased their antiproliferative potencies” and the “antiproliferative effect, boronate versus non-boronated analog” value was “slightly more potent”.

For the compound `C=CCc1ccc(O)c(-c2cc(CC=C)ccc2OCc2ccc(B3OC(C)(C)C(C)(C)O3)cc2)c1` [MGN-B, Magnolol boronate], the effect on proliferation result in the series on melanoma (UACC-62) cells is given as “decreasing the proliferation”. The “antiproliferative effect, boronate versus non-boronated analog” value in series [2] is on record as “increased the potency”.

`C=CCc1ccc(O)c(-c2cc(CC=C)ccc2O)c1` [MGN, magnolol]: the effect on proliferation entry in the series on melanoma (UACC-62) cells is recorded as “decreasing the proliferation”.

In the case of “Mitochondria-targeted honokiol boronate [Mito-HNK-B]”, the figures for the “antiproliferative effect, boronate versus non-boronated analog” value (with lung cancer (A549) cells; in series [1]; in [2]) were “nearly the same”, “nearly the same” and “slightly more potent; also recorded: nearly the same”, respectively. Further, the “hydrolysis of pinacolate ester to the corresponding boronic acid” value in series [6] is listed as “fast hydrolysis”. The “conversion of boronate to parent polyphenol” value in series [7] (at higher concentrations of H2O2) is “increased”. For the same compound, the “conversion of boronate to parent polyphenol (HNK or Mito-HNK)” value in series [7] (in the presence of H2O2 (500 μM), boronate 500 μM, phosphate buffer 0.1 M pH 7.4, room temperature) turned out to be 37%. Further, in [8], the “oxidation to HNK / Mito-HNK” value is given as “rapidly oxidized”.
